According to ChEMBL document CHEMBL1151612, “Potential anticancer agents XXXII. Hydroquinone from Ipomopsis aggregata” (1984):
Values after ≈ are worked out from the molar mass of the structure shown.

Legend:
KB = experiment: Cytotoxicity against human KB cells; conditions: read-out: ED50
P388 = experiment: Cytotoxicity against mouse P388 cells; conditions: P388, read-out: ED50

Oc1ccc(O)cc1 [HYDROQUINONE]
EC50 (KB): 3.8 mg/L (≈ 34.5 µM)
EC50 (P388): 2.2 mg/L (≈ 20 µM)
